The values that follow are results of earlier work, collected in patent US11185540B2, “Extended release compositions of opioid antagonists and phosphodiesterase 5 inhibitors” (Pardon My Scotch, LLC, priority 2017, dated 2021).

Structures are written as SMILES.

In data set [1] the test system is PDE6.
The conditions of data set [2]: in vivo.
The target of data set [3] is PDE9 (Homo sapiens, UniProt O76083).
In data set [4] the target is PDE5 (Homo sapiens, UniProt O76074).

PDE9, sequence (O76083 whole entry): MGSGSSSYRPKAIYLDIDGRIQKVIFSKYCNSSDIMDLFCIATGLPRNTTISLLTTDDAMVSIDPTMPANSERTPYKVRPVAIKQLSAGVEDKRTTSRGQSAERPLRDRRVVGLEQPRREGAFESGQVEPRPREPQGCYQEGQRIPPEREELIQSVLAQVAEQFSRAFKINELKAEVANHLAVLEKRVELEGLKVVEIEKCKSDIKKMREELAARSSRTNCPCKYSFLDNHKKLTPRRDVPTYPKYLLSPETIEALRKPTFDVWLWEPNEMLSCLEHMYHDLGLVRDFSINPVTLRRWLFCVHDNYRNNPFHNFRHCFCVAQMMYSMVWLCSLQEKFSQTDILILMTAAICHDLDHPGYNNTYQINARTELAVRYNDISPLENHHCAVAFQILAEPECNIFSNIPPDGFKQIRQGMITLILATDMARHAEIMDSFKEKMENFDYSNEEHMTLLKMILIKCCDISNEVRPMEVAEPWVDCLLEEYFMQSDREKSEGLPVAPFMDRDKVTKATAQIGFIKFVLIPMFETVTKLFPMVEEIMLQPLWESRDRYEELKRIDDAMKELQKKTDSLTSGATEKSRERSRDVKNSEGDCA

Regarding `CCCc1nn(C)c2c(=O)[nH]c(-c3cc(S(=O)(=O)N4CCN(C)CC4)ccc3OCC)nc12` [sildenafil], in data set [1], the “Inhibition of PDE6” value is given as “inhibit”. In data set [2], the Plasma half-life is 5 to 7 h. Also, the “Inhibition of PDE9” value in data set [3] is given as “inhibit”. As for `CN1CC(=O)N2[C@H](c3ccc4c(c3)OCO4)c3[nH]c4ccccc4c3C[C@@H]2C1=O` [tadalafil, pyrazino[1′,2′:1,6]pyrido[3,4-b]indole-1,4-dione, 6-(1,3-benzodioxol-5-yl)-2,3,6,7,12,12a-hexahydro-2-methyl-, (6R,12aR)-], the “Inhibition of PDE5” value in data set [4] was “inhibit”. For the compound `CCCc1nc(C)c2c(=O)[nH]c(-c3cc(S(=O)(=O)N4CCN(CC)CC4)ccc3OCC)nn12` [vardenafil], the Plasma half-life in data set [2] was 5 to 7 h.
